Experimental data taken from patent US20080242698A1, “Organic Compounds” (priority 2005, published 2008).

SMILES | melting point
CC(C)N(C(=O)CNCC(c1ccccc1)c1ccccc1)c1ccccc1.Cl | 240 to 243 °C
CC(C)N(C(=O)CNCc1cccc2ccccc12)c1ccccc1.Cl | 224 to 226 °C
CC(C)N(C(=O)CNCc1ccc(Cl)c(Cl)c1)c1ccccc1.Cl | 245 to 250 °C
CS(=O)(=O)O.CS(=O)(=O)O.Clc1ccc(C(NCCNC(c2ccccc2)c2ccc(Cl)cc2)c2ccccc2)cc1 (stereo not drawn) | 233 to 235 °C
Cl.O=C(CNCC(c1ccccc1)c1ccccc1)N1c2ccccc2Oc2ccccc21 | 215 to 216 °C
Cl.O=C(CNCC(c1ccccc1)c1ccccc1)n1c2ccccc2c2ccccc21 | 250 °C
Cl.O=C(CNCc1ccccc1Cl)N(c1ccccc1)c1ccccc1 | 213 to 214.5 °C
Cl.O=C(CNCC(c1ccccc1)c1ccccc1)N(Cc1ccccc1)c1ccccc1 | 188 to 190 °C
Cl.O=C(CNCc1ccccc1Cl)N(Cc1ccccc1)c1ccccc1 | 190 to 192 °C
Cl.O=C(CNCC(c1ccccc1)c1ccccc1)N(c1ccccc1)c1ccccc1 | 232 to 234 °C
Cl.O=C(CN1CCc2ccccc2C1)N1CCCc2ccccc21 | 201 to 203 °C
Cl.O=C(CNC1CCCc2ccccc21)N1c2ccccc2C=Cc2ccccc21 (stereo not drawn) | 245 to 246 °C
Cl.O=C(CNCc1ccccc1)N(c1ccccc1)c1ccccc1 | 234 to 237 °C
Cl.O=C(CNCc1cccc2ccccc12)N(c1ccccc1)c1ccccc1 | 233 to 235 °C
Cl.O=C(CNCCC(c1ccccc1)c1ccccc1)N(c1ccccc1)c1ccccc1 | 227 to 230 °C
Cl.O=C(CNCc1ccc(Cl)c(Cl)c1)N1c2ccccc2C=Cc2ccccc21 | 244 to 249 °C
Cl.O=C(CNCCc1ccccc1)N1c2ccccc2C=Cc2ccccc21 | 243 to 259 °C
Cl.O=C(CNC1CCc2ccccc2C1)N(c1ccccc1)c1ccccc1 (stereo not drawn) | 274 to 295 °C

SMILES | melting point
Cl.NC(C(=O)NCC(=O)N(c1ccccc1)c1ccccc1)c1ccccc1 (stereo not drawn) | 177 to 185 °C (dec.)
Cl.N[C@@H](C(=O)NCC(=O)N1c2ccccc2C=Cc2ccccc21)c1ccccc1 | 179 to 185 °C
Cl.N[C@H](C(=O)NCC(=O)N1c2ccccc2C=Cc2ccccc21)c1ccccc1 | 192 to 233 °C
CN(C(=O)CNCc1ccc(Cl)c(Cl)c1)c1ccccc1.Cl | 221 to 224 °C
COc1ccc(CNC(C(=O)NCc2ccccc2)c2ccccc2)cc1.O=C(O)/C=C/C(=O)O (racemic) | 153 to 155 °C
CN(C)c1ccc(CNC(C(=O)NCc2ccccc2)c2ccccc2)cc1.O=C(O)/C=C/C(=O)O (racemic) | 159 to 161 °C
Cl.O=C(NCc1ccccc1)C(NC(c1ccccc1)c1ccccc1)c1ccccc1 (racemic) | 218.4 to 219.2 °C (dec.)
Cl.O=C(NCc1cccc(Cl)c1)C(NC(c1ccccc1)c1ccccc1)c1ccccc1 (racemic) | 215 to 216 °C
CC(CN(C)C)N1c2ccccc2CCc2ccccc21.Cl (racemic) | 172 to 173 °C
CC(NCC(=O)N(c1ccccc1)c1ccccc1)c1ccccc1.Cl (racemic) | 232 to 236 °C
CC(NCC(c1ccccc1)c1ccccc1)C(=O)N(c1ccccc1)c1ccccc1.Cl (racemic) | 122 to 125 °C
CC(NC1Cc2ccccc2C1)C(=O)N(c1ccccc1)c1ccccc1.Cl (racemic) | 208 to 210 °C
CC(NC(c1ccccc1)c1ccccc1)C(=O)NCCC(c1ccccc1)c1ccccc1.Cl (racemic) | 210.3 to 212 °C
O=C(NCc1ccccc1)C(c1ccccc1)N(Cc1ccccc1)Cc1ccccc1 (racemic) [Example 106, rac-N-Benzyl-2-dibenzylamino-2-phenyl-acetamide] | 109 to 119.5 °C
COc1cc(CNC(C(=O)NCc2ccccc2)c2ccccc2)cc(OC)c1 (racemic) [Example 112, rac-N-Benzyl-2-(3,5-dimethoxy-benzylamino)-2-phenyl-acetamide] | 107 to 108 °C
O=C(NCC(c1ccccc1)c1ccccc1)C(Cc1ccccc1)NCc1ccccn1 (racemic) [Example 136, rac-N-(2,2-Diphenyl-ethyl)-3-phenyl-2-[(pyridin-2-ylmethyl)-amino]-propion-amide] | 68 to 70 °C
O=C(NC(C(=O)NCc1ccccc1)c1ccccc1)c1ccc2cc(C(=O)O)[nH]c2c1 (stereo not drawn) [Example 117, 6-[(Benzylcarbamoyl-phenyl-methyl)-carbamoyl]-1H-indole-2-carboxylic acid] | 258 to 260 °C

Continued, values first:

melting point | SMILES
72 to 78 °C | Cl.O=C(CNCC(c1ccccc1)c1ccccc1)N1CCc2ccccc2C1
132 to 134 °C | Cl.O=C(CNC(c1ccccc1)c1ccccc1)Nc1cccc2ccccc12
151 to 158 °C | Cl.O=C(CNC(c1ccccc1)c1ccccc1)Nc1ccccc1-c1ccccc1
181 to 182 °C | Cl.O=C(CNC(c1ccccc1)c1ccccc1)N(Cc1ccccc1)c1ccccc1
191 to 194 °C | Cl.O=C(CNC(c1ccccc1)c1ccccc1)N1CCCc2ccccc21
241 to 243 °C | CC(C)N(C(=O)CNC(c1ccccc1)c1ccccc1)c1ccccc1.Cl
82 to 95 °C | Cc1cccc2c1N(C(=O)CNCC(c1ccccc1)c1ccccc1)CCC2.Cl
128 to 136 °C | Cc1cccc2c1N(C(=O)CNC(c1ccccc1)c1ccccc1)CCC2.Cl
210 to 212 °C | CC(CNCC(=O)N1CCCc2ccccc21)(c1ccccc1)c1ccccc1.Cl
174 to 178 °C | Cl.O=C(CNCC(c1ccccc1)c1ccccc1)N1CCCc2ccccc21
221 to 223 °C | CN(C(=O)CNCC(c1ccccc1)c1ccccc1)c1ccccc1.Cl
177.5 to 178.1 °C | Cl.O=C(CNC(c1ccccc1)c1ccccc1)NCCC(c1ccccc1)c1ccccc1
161.9 to 162.9 °C | Cl.O=C(CNC(c1ccccc1)c1ccccc1)NCc1ccccc1
212 to 215 °C | CC1CCc2ccccc2N1C(=O)CNCC(c1ccccc1)c1ccccc1.Cl (racemic)
98 to 99 °C | O=C(CNCc1ccccc1Cl)NC(c1ccccc1)c1ccccc1 [Example 5, N-Benzhydryl-2-(2-chloro-benzylamino)-acetamide]
202 to 204 °C | O=C(CN1CCc2ccccc2C1)N(c1ccccc1)c1ccccc1 [Example 14, 2-(3,4-Dihydro-1H-isoquinolin-2-yl)-N,N-diphenyl-acetamide]
122 to 123 °C | O=C(CNC(c1ccccc1)c1ccccc1)N(c1ccccc1)c1ccccc1 [Example 15, 2-(Benzhydryl-amino)-N,N-diphenyl-acetamide]
115 to 116 °C | CN(C(=O)CNC(c1ccccc1)c1ccccc1)c1ccccc1 [Example 24, 2-(Benzhydryl-amino)-N-methyl-N-phenyl-acetamide]
82 to 84 °C | O=C(CNC1c2ccccc2-c2ccccc21)N1CCCc2ccccc21 [Example 31, 1-(3,4-Dihydro-2H-quinolin-1-yl)-2-(9H-fluoren-9-ylamino)-ethanone]
